Consider three molecules from patent publication US6011041A, “Use of anhydrovinblastine” (priority 1996, dated 2000).

Data set [1] concerns LS180 human colon carcinoma. As to the kind of experiment: MTT dose response cytotoxicity, LS180 (Table 1). The data set is classed as cell-based. As to conditions: read-out: DRUG IC50. On the procedure:
(§1) Cytotoxicity experiments on AHVB were performed as direct comparisons with vincristine and navelbine in order to assess its inherent antineoplastic profile against a variety of tumour cell types relative to other relevant vinca alkaloids. The cytotoxicity of AHVB was investigated in vitro against a panel of tumour cell lines of varying lineage in order to determine the specificity of its antitumour activity with respect to cell type. The tumour lines studied were P388 lymphocytic leukemia (a murine lymphocytic leukemia), Noble (Nb) rat U17 lymphoma, MCF7 human breast carcinoma, H460 human non-small cell lung carcinoma, K562 human erythrokeukemia and LS180 human colon carcinoma based on established NCI in vitro new anticancer drug cytotoxicity screening protocols.
(§2) Standard dose response cytotoxicity assays (R. Mosmass, J. Immunol. Meth., 65:55-64, 1983) were utilized to determine the IC50 (drug concentration required to induce 50% inhibition of tumour cell growth) for vincristine, navelbine and AHVB. The indicated cell lines were obtained from either the ATCC or NCI tumor repository and were cultured in tissue culture media by standard techniques well known to those skilled in the art, prior to dilution to a defined cell concentration required for the studies in 96 well plates.
(§3) A wide range of drug concentrations were exposed to tumour cells growing at log phase in 96-well microtitre plates. Cell concentrations depended on the cell line as well as the length of time to be cultured. Typically, P388 cells were plated at a concentration of 30,000, 2,000 and 750 cells per well for studies lasting 1, 3 and 7 days, respectively MCF7 cells were plated at a concentration of 7,000 and 1,500 cells per well for studies lasting 3 and 7 days, respectively. H460 cells were plated at a concentration of 2,500 and 1,000 cells per well for studies lasting 3 and 7 days, respectively. K562 cells were plated at a concentration of 1,500 and 10,000 cells per well for studies lasting 1 and 3 days, respectively. LS180 cells were plated at a concentration of 5,000 and […] cells per well for studies lasting 3 and 7 days, respectively. After plating all cell lines were incubated (CO2 incubator at 37° C., 5% CO2) for 24 hours prior to addition of the cytotoxic agent (See Table 1). Subsequently the plates were incubated for the indicated time period. At specified times, cells were washed and subsequently exposed to the dye inclusion marker MTT (3-(4,5-dimethylthiazol-2-yl)-2,5diphenyl tetrazolium), which accumulated into viable cells. MTT was added to the cells at a final concentration of 50 μg per well. After a 4 hour incubation, the cells were washed free of media and unreacted MTT, prior to addition of DMSO which was required to solubilize the insoluble formazan precipitate that formed in viable cells. After the sample was mixed through repeated pipetting, the colored product was measured using a plate reader operating at 570 nm. The absorbance values obtained for cells cultured in the absence of drug was assumed to represent 100% viability. Experiments were repeated to substantiate any differences noted between […] and other vinca alkaloids.

Data set [2] has as its system MCF7 human breast carcinoma. As to the kind of experiment: MTT dose response cytotoxicity, MCF7 (Table 1). The data set is classed as cell-based. Particulars: read-out: DRUG IC50. On the procedure: as §1, §2, §3
Data set [3] deals with H460 human non-small cell lung carcinoma. As to the kind of experiment: MTT dose response cytotoxicity, H460 (Table 1). The data set is classed as cell-based. Particulars: read-out: DRUG IC50. The procedure:
as §1, §2, §3

Data set [4] concerns Nb2-U17 lymphoma. As to the kind of experiment: Nb2-U17 lymphoma transplant efficacy in Nb rats (FIGS. 2-3). The data set is classed as in vivo, rat. Particulars: for anti-tumour effect at 50% of maximum tolerated dose, relative potency: half subacutely toxic dose, single i.p. (AHVB 1.5, navelbine 1.0, vincristine 0.35 mg/kg); for time to regression of tumours to essential non-palpability: single i.p. subacutely toxic dose (AHVB 3.0, navelbine 2.0, vincristine 0.7 mg/kg); for recurrence of tumours after day 10 / time after which most of the lost animal weight was regained: single i.p. subacutely toxic dose, Nb2-U17 rats. An excerpt:
The U17 cell line was originally derived from a transplantable malignant lymphoma that arose spontaneously in male Noble rats (British Columbia Cancer Research center Joint Animal Breeding Facility with parents obtained from the National Institutes of Health, Bethesda, Md.). The cell line is prolactin dependent and can readily be cultured in vitro. U17 derived solid tumours are generated by subcutaneous injection (via the trocar method) of a small (2 mm^2) piece of tumour tissue obtained from male Noble rat. Tumour tissue used for the implants arose two weeks after injection of 5×10^6 U17 cells (from culture) subcutaneously in the nape of the neck. For assessing the anti-tumour activity of AHVB, tumour bearing animals (2-4 gm tumours) were given a single treatment of drug and tumour size was measured as a function of time following treatment. The anti-tumour activity was assessed at a series of different doses in order to determine the maximum therapeutic dose of AHVB. Comparative studies between vincristine, vinblastine and AHVB were performed.
Cultures of the non-metastatic, pre-T Nb2 lymphoma line originally developed at The University of British Columbia and designated Nb2-U17 (Anticancer Research 14:2485-2492, 1994), and are available from the British Columbia Cancer Research Center. Cells from exponentially growing Nb2-U17 suspension cultures were injected subcutaneously into methoxyflurane-anesthetized, mature male Nb rats (5 rats; 310-380 grams; 5×10^6 cells/rat in 1 ml of culture medium) at the nape of the neck using a 1.5" 20-gauge needle. At about 3 weeks, when the tumours reached a size of 4-7 cm (length+width), the animals were sacrificed and the tumours used for transplantation as described below.
A tumour from a rat was excised, minced and the tumour tissue was put into trocars (2", 13 gauge). The tissue samples were implanted subcutaneously in the nape of the neck of methoxyflurane-anesthetized male Nb rats (248-404 grams; 1 trocar per rat). This procedure was repeated 5 times to get a total of 60 tumour-bearing rats to be used for efficacy studies of the 3 drugs.
When the tumours were well established (1.5-2 weeks later), three separate groups of 20 rats, as closely matched as possible in terms of both tumour weight and rat weight, were selected for administration of the three test articles (i.e. one group for each test article).
Vincristine was administered to rats weighing 281-384 grams, bearing tumours weighing 6.3-16.3 grams. Navelbine was administered to rats weighing 274-389 grams bearing tumours weighing 9.1-23.3 grams. AHVB was administered to rats weighing 303-400 grams, bearing tumours weighing 7.9-25.9 grams. Tumour weights were estimated using the hemi-ellipsoid model (weight in grams=[…] in cm).
The oncolytic effects of each of the three drugs were assessed at a subacutely toxic dose, determined for each drug in preliminary studies using non-tumour-bearing, mature male Nb rats, i.e. 3.0, 2.0 and 0.7 mg/kg for […], navelbine and vincristine, respectively as illustrated in FIG. 2. In addition, each drug was assessed at 50% and 25% of its subacutely toxic dose. Five tumour-bearing rats were used to evaluate the effect at each dose level. The drugs were administered intraperitoneally as a single bolus in a volume of 0.19-0.31 ml, as indicated by the weight of the animals. To this end, drug preparations were diluted to appropriate concentrations using sparged saline adjusted with acetic acid to pH 4.2. For each drug, a group of 5 control rats received an intraperitoneal injection of the equivalent amount of saline (pH 4.2). The tumour-bearing rats were organized in the following groups:
Following administration of the test articles, the animals; weight and tumour size (using calipers) were determined daily until the tumour reached an estimated weight of 35 grams, or started to ulcerate, at which times the animals were sacrificed (by carbondioxide inhalation) and subjected to necropsy. […]

Setting [5] is: 72 h, LS180, exposure time 3 days.
Where [6] appears, read: 168 h, LS180, exposure time 7 days.
Where [7] appears, read: 72 h, MCF7, exposure time 3 days.
[8] abbreviates: 168 h, MCF7, exposure time 7 days.
[9] abbreviates: NCI-H460, 72 h, H460, exposure time 3 days.
Where [10] appears, read: NCI-H460, 168 h, H460, exposure time 7 days.

Counter-ions that a name gives are not always drawn. Like-named read-outs stand apart in the source and are kept apart here.

What is called IC50 is the concentration at which inhibition is half-maximal. On to `CCC1=CC2CN(CCc3c([nH]c4ccccc34)C(C(=O)OC)(c3cc4c(cc3OC)N(C)C3C(O)(C(=O)OC)C(OC(C)=O)C5(CC)C=CCN6CCC43C65)C2)C1` (centres unmarked) [AHVB, 3',4'-anhydrovinblastine], for which the IC50 in data set [1] (LS180, 72 h) was above 50 nM; in data set [1] (LS180, 168 h) it was 17.5 nM; in data set [2] (MCF7, 72 h), above 2500 nM; in data set [2] (MCF7, 168 h), 31.3 ± 12.4 nM; in data set [3] (NCI-H460, 72 h) it was 10 nM; in data set [3] (NCI-H460, 168 h) it was 5 nM. Moreover, the “anti-tumour effect at 50% of maximum tolerated dose, relative potency” value in data set [4] was “less potent than vincristine”. For the same molecule, the “time to regression of tumours to essential non-palpability” value (“time … to essential non-palpability” for short) in data set [4] is recorded as at most 5 days. For the same molecule, the “recurrence of tumours after day 10” value in data set [4] is “occurred to about the same extent”. Further, the “time after which most of the lost animal weight was regained” value (from here on “time after which most”) in data set [4] is “about 17 days”.
Consider `CCC1=C[C@@H]2CN(C1)Cc1c([nH]c3ccccc13)[C@@](C(=O)OC)(c1cc3c(cc1OC)N(C)[C@H]1[C@@](O)(C(=O)OC)[C@H](OC(C)=O)[C@]4(CC)C=CCN5CC[C@]31[C@@H]54)C2` [navelbine, 3',4'-didehydro-4'-deoxy-C'-norvincaleukoblastine-di-L-tartrate], for which the IC50 was above 50 nM in data set [1] (setting [5]); 0.5 nM in data set [1] (setting [6]); above 2500 nM in data set [2] (setting [7]); 2.6 ± 1.6 nM in data set [2] (setting [8]); 0.3 nM in data set [3] (setting [9]); above 0.5 nM in data set [3] (setting [10]). In addition, in data set [4], the “anti-tumour effect at 50% of maximum tolerated dose, relative potency” value was “less potent than AHVB”. In addition, the “time … to essential non-palpability” value in data set [4] is on record as at most 5 days. The “recurrence of tumours after day 10” value in data set [4] was “occurred to about the same extent”. For the same molecule, the “time after which most” value in data set [4] is listed as “about 17 days”.
On to `CC[C@]1(O)C[C@H]2CN(CCc3c([nH]c4ccccc34)[C@@](C(=O)OC)(c3cc4c(cc3OC)N(C=O)[C@H]3[C@@](O)(C(=O)OC)[C@H](OC(C)=O)[C@]5(CC)C=CCN6CC[C@]43[C@@H]65)C2)C1` [vincristine, Sulfate of 22-oxovincaleukoblastine], for which the IC50 is above 50 nM in data set [1] (setting [5]); 1.5 nM in data set [1] (setting [6]); above 2500 nM in data set [2] (setting [7]); 2.6 ± 1.6 nM in data set [2] (setting [8]); 3.5 nM in data set [3] (setting [9]); 2.5 nM in data set [3] (setting [10]). Moreover, the “time … to essential non-palpability” value in data set [4] is listed as at most 5 days. In data set [4], the “recurrence of tumours after day 10” value is “recurrence of tumours was not observed”. Further, the “time after which most” value in data set [4] is given as “about 17 days”.
